Source: article PMC8689653 (ACS Catalysis, 2021)

Tested on: Lp-NOX
Test: NADH oxidation, absorbance at […] nm, Michaelis-Menten fit
Type: biochemical, Lactiplantibacillus pentosus
Conditions: free enzyme; 0.2 mM NADH, 0.025-0.2 mM flavin, 25 mM phosphate pH 7, 30 °C

Question: Cc1cc2nc3c(=O)[nH]c(=O)nc-3n(C[C@H](O)[C@H](O)[C@H](O)COP(=O)(O)OP(=O)(O)OC[C@H]3O[C@@H](n4cnc5c(N)ncnc54)[C@H](O)[C@@H]3O)c2cc1C [FAD] was tested. Which Km did it give?
Answer: 41 ± 20 µM

Question: With Cc1cc2nc3c(=O)[nH]c(=O)nc-3n(C[C@H](O)[C@H](O)[C@H](O)COP(=O)(O)O)c2cc1C [FMN] as the compound, how does the Km read?
Answer: 215 ± 100 µM
